Data: PubChem BioAssay AID2037 (NMMLSC, 2009)

Molecular target: Cell division control protein 42 homolog (Homo sapiens) (UniProt P60953)
Experiment: wild-type Cdc42 nucleotide-binding inhibitors, SAR follow-up, biochemical, bead-based multiplex flow cytometry, oxadiazole series (AID 2037)
Details: GST-Cdc42 beads, Bodipy-FL-GTP binding, Ki calculated from EC50

Cell division control protein 42 homolog (Homo sapiens), sequence (P60953 whole entry, looked up): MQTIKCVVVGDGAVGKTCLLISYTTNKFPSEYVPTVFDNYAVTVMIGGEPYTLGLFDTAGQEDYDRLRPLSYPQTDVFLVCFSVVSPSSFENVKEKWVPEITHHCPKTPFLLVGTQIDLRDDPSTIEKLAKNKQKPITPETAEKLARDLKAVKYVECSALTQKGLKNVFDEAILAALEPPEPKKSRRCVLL

| Compound | Ki [nM] |
| --- | --- |
| COc1ccc(-c2noc(CCC(=O)N3CCN(c4ccc(C)cc4)CC3)n2)cc1 | 120 |
| Cc1cccc(-c2noc(CCC(=O)N3CCN(c4cc(C)ccc4C)CC3)n2)c1 | 220 |
| Cc1ccc(-c2noc(CCC(=O)N3CCN(c4cc(C)ccc4C)CC3)n2)cc1 | 920 |
| Cc1ccc(C)c(N2CCN(C(=O)CCc3nc(-c4ccccc4C(F)(F)F)no3)CC2)c1 | 1050 |
| Cc1ccc(C)c(N2CCN(C(=O)CCc3nc(-c4ccccc4Br)no3)CC2)c1 | 490 |
| Cc1ccc(C)c(N2CCN(C(=O)CCc3nc(-c4ccc(F)cc4)no3)CC2)c1 | 80 |
| COc1ccc(-c2coc(CCC(=O)N3CCN(c4cc(C)ccc4C)CC3)n2)cc1 | 480 |
| COc1ccccc1-c1noc(CCC(=O)N2CCN(c3cc(C)ccc3C)CC2)n1 | 330 |
| Cc1ccc(C)c(N2CCN(C(=O)CCc3nc(-c4ccccc4)no3)CC2)c1 | 850 |
| COc1ccc(-c2noc(CCC(=O)N3CCN(c4cc(C)ccc4C)CC3)n2)cc1 | 580 |
| COc1ccc(-c2noc(CCC(=O)N3CCC(c4cc(C)ccc4C)CC3)n2)cc1 | 300 |
| COc1ccc(-c2cccc(CCC(=O)N3CCN(c4cc(C)ccc4C)CC3)c2)cc1 | 780 |
| Cc1ccc(C)c(N2CCN(C(=O)CCc3nc(-c4ccc(C(F)(F)F)cc4)no3)CC2)c1 | 680 |
| COc1ccc(-c2noc(CCC(=O)N3CCN(c4ccccc4C(F)(F)F)CC3)n2)cc1 | 420 |
| COc1ccc(-c2noc(CCC(=O)N3CCN(c4cccc(OC)c4)CC3)n2)cc1 | 2550 |
| Cc1ccc(C)c(N2CCN(C(=O)CCc3nc(-c4ccc(Br)cc4)no3)CC2)c1 | 340 |
| Cc1ccc(C)c(N2CCN(C(=O)CCc3nc(-c4ccc(Cl)cc4)no3)CC2)c1 | 360 |
| Cc1ccc(C)c(N2CCN(C(=O)CCc3nc(-c4cccc(Cl)c4)no3)CC2)c1 | 460 |
| COc1ccc(-c2noc(CCC(=O)N3CCN(c4ccccc4Cl)CC3)n2)cc1 | 170 |
| COc1ccc(-c2noc(CCC(=O)N3CCN(c4ccccc4Br)CC3)n2)cc1 | 490 |
| Cc1ccc(C)c(N2CCN(C(=O)CCc3nc(-c4cccc(Br)c4)no3)CC2)c1 | 450 |
| Cc1ccc(C)c(N2CCN(C(=O)CCc3nc(-c4ccc(N(C)C)cc4)no3)CC2)c1 | 250 |
| COc1ccc(-c2noc(CCC(=O)N3CCN(c4cccc(C(F)(F)F)c4)CC3)n2)cc1 | 410 |
| COc1ccc(-c2noc(CCC(=O)N3CCN(c4ccccc4F)CC3)n2)cc1 | 140 |
| COc1ccc(-c2noc(CCC(=O)N3CCN(c4ccc(OC)cc4)CC3)n2)cc1 | 100 |
| COc1ccc(-c2noc(CCCC(=O)N3CCN(c4cc(C)ccc4C)CC3)n2)cc1 | 1310 |
| COc1ccc(-c2noc(CCC(=O)N3CCN(c4ccccc4C)CC3)n2)cc1 | 360 |
| COc1cccc(-c2noc(CCC(=O)N3CCN(c4cc(C)ccc4C)CC3)n2)c1 | 590 |
| COc1ccc(-c2noc(CCC(=O)N3CCN(c4cccc(C)c4C)CC3)n2)cc1 | 240 |
